This experiment deals with BDF1 mice, P329 reticulum cell sarcoma ip, survival T/C. In words: NCI In Vivo Anticancer Drug Screen. Data for tumor model P329 Reticulum Cell Sarcoma (intraperitoneal) in B6D2F1 (BDF1) mice. The note with it: endpoint: median survival time, schedule: Q01DX010 (ip), higher = longer survival. As for the experimental part:
The antitumor activity of compounds was measured in mice bearing transplantable tumors. Survival or tumor size were measured and the results are expressed as the measurement made in the treated group (T) divided by the measurement made in the vehicle treated control group (C). The tumor model used in this assay is P329 Reticulum Cell Sarcoma (intraperitoneal) in B6D2F1 (BDF1) mice

Setting [1] is: dose: 25.0 mg/kg/injection, vehicle: saline.
Where [2] appears, read: dose: 200.0 mg/kg/injection, vehicle: saline.

Values joined by “and” are separate entries in the source; they are usually repeats but may differ in a detail not shown here. Equal values may be shown once. Inconclusive results and toxic doses are left out.

Turning to `Oc1cc(CN(CCCl)CCCl)c(O)cc1CN(CCCl)CCCl`, the T/C (dose: 0.63 mg/kg/injection, vehicle: saline) is 103 % of control and 114 % of control; the T/C (dose: 1.25 mg/kg/injection, vehicle: saline) is 114 % of control; the T/C (dose: 2.5 mg/kg/injection, vehicle: saline) is 117 % of control; the T/C (dose: 5.0 mg/kg/injection, vehicle: saline) was 96 % of control and 107 % of control.

Take `Nc1nc2n[nH]nc2c(=O)[nH]1`: the T/C by setting is: (dose: 100.0 mg/kg/injection, vehicle: alkali diluted with saline) 153 % of control; (dose: 200.0 mg/kg/injection, vehicle: alkali diluted with saline) 150 % of control.

Take `CSc1ncnc2nc[nH]c12`: the T/C under setting [1] is 115 % of control and 123 % of control.

With `O=c1cnn(C2OC(CO)C(O)C2O)c(=O)[nH]1` (stereo unspecified), the T/C under setting [2] was 116 % of control.

Consider `CN(C)/N=N/c1nc[nH]c1C(N)=O`, for which the T/C by setting is: under setting [1], 121 % of control; (dose: 100.0 mg/kg/injection, vehicle: saline) 169 % of control; under setting [2], 100 % of control and 110 % of control.

For the compound `CO[C@H](C(=O)[C@@H](O)[C@@H](C)O)[C@@H]1Cc2cc3cc(OC4CC(OC5CC(O)C(O)C(C)O5)C(O)C(C)O4)c(C)c(O)c3c(O)c2C(=O)[C@H]1OC1CC(OC2CC(OC3CC(C)(O)C(O)C(C)O3)C(O)C(C)O2)C(O)C(C)O1` (stereo partly specified), the T/C by setting is: (dose: 0.5 mg/kg/injection, vehicle: saline) 103 % of control; (dose: 1.0 mg/kg/injection, vehicle: saline) 90 % of control.

Regarding `O=C(O)CCCc1ccc(N(CCCl)CCCl)cc1`, the T/C was 96 % of control and 108 % of control (dose: 3.13 mg/kg/injection, vehicle: saline); 103 % of control and 108 % of control (dose: 6.25 mg/kg/injection, vehicle: saline); 116 % of control and 119 % of control (dose: 12.5 mg/kg/injection, vehicle: saline).
